According to patent publication US4906662A, “Phenol derivatives, their preparation and the use thereof” (Otsuka Pharmaceutical Factory, Inc., priority 1986, dated 1990):
Where a name gives a salt, the structure may show the parent alone.

Key:
[1] = target: T1, 5-lipoxygenase (Cavia porcellus, UniProt A0A286X958); assay: 5-Lipoxygenase inhibitory activity (5-HETE formation in guinea pig peritoneal exudate cells); type: cell-based; settings: read-out: Percent inhibition of 5-lipoxygenase
T1 construct: endogenous in cells; host or cells: guinea pig peritoneal exudate cells (casein-elicited), intact cell suspension
T1 sequence (A0A286X958 1-674): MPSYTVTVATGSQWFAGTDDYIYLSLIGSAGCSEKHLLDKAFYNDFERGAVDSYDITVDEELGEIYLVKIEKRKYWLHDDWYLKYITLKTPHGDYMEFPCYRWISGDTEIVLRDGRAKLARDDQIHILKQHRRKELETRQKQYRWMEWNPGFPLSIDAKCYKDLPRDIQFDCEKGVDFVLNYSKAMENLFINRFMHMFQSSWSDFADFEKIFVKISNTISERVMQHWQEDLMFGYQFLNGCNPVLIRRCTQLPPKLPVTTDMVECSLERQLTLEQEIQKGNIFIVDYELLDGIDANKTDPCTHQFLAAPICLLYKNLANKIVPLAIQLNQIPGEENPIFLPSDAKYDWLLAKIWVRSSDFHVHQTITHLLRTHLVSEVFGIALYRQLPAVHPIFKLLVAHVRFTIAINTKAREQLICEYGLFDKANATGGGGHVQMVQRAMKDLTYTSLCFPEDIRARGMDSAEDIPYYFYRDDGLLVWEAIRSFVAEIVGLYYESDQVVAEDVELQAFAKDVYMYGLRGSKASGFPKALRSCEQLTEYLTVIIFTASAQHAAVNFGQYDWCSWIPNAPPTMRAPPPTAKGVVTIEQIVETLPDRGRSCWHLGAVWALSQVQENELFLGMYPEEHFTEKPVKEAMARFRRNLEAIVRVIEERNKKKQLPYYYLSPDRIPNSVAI
Method: (J. Biol. Chem., 256, 4156 (1981)) and to the method of Ochi et al. (J. Biol. Chem., 258, 5754 (1983). More specifically, 2% casein was intraperitoneally given to a guinea pig, which was bleeded to death 14 to 16 hours thereafter. The peritoneal cavity was washed to collect exudate cells, which were suspended in a phosphate buffer containing 1 mM CaCl2 and 5.5 mM glucose to a concentration of 2.5×10^7 cells/ml. The cell suspension was incubated at 30° C. for 2 minutes. The test compound was then added to the cell suspension, followed by incubation for 2 minutes. With addition of 10 μM of A23187 first and then 10 μM of ^14 C-arachidonic acid to the resulting suspension. Then, the suspension was incubated for 3 minutes. […] The arachidonic acid, 5(S)-hydroxy-6,8,11,14-eicosatetraenoic acid (5-HETE) and other portions were thereafter scraped off, and ^14 C was counted by a scintillator.

[2] = test system: carrageenin-induced paw edema; assay: Anti-inflammatory activity: inhibition of carrageenin-induced paw edema in rats; type: in vivo, rat (S.D. strain, male); settings: po, read-out: Percent inhibition of edema; for inhibition in vivo at 100 mg/kg: 100 mg/kg p.o., rat, 3 hours after carrageenin
Method: (1) Anti-inflammatory activity:inhibition of carrageenin-induced paw edema in rats The compound was tested for the above activity according to the method of Winter et al. [Proc. Soc. […] One hour after the test compound was orally given to the animal, 0.1 ml of 1% carrageenin solution was subcutaneously injected into the right footpad. The paw volume was measured 3 hours thereafter, and the resulting increase in the volume was calculated based on the volume before the injection of carrageenin solution. The percent inhibition was determined in comparison with the increase in the control group.

SMILES | inhibition at 1 µM [1] [%] | inhibition at 10 µM [1] [%] | inhibition in vivo at 100 mg/kg [2] [%] | inhibition in vivo at 5 mg/kg ([2]; Rattus norvegicus, 3 h) [%]
CC(C)(C)c1cc(Nc2ccc(Cl)cc2CO)cc(C(C)(C)C)c1O [Compound 38, 2,6-di-tert-butyl-4-(4-chloro-2-hydroxymethylphenylamino)phenol] |  |  | 79 | 
CC(C)(C)c1cc(Nc2cccc(C(F)(F)F)c2)cc(C(C)(C)C)c1O [Compound 4] |  |  | 16 | 
CC(C)(C)c1cc(Nc2ccc(CC(=O)N3CCOCC3)cc2)cc(C(C)(C)C)c1O [Compound 71] |  |  | 20 | 
CC(C)(C)c1cc(Nc2ccccc2)cc(C(C)(C)C)c1O [2,6-di-tert-butyl-4-phenylaminophenol, reference compound] | 2 | 62 | 62 | 
CC(C)(C)c1cc(Nc2ccc(C#N)cc2)cc(C(C)(C)C)c1O [Compound 28, 2,6-di-tert-butyl-4-(4-cyanophenylamino)phenol] |  |  | 58 | 
CC(C)(C)c1cc(Nc2ccccc2O)cc(C(C)(C)C)c1O [Compound 3] |  |  | 25 | 
CC(C)(C)c1cc(Nc2ccc(S(N)(=O)=O)cc2)cc(C(C)(C)C)c1O [Compound 93] |  |  | 16 | 
CCCCCCCCCNC(=O)c1ccc(Nc2cc(C(C)(C)C)c(O)c(C(C)(C)C)c2)cc1 [Compound 63] |  |  | 29 | 
CSc1ccccc1Nc1cc(C(C)(C)C)c(O)c(C(C)(C)C)c1 [Compound 12] |  |  | 41 | 
CC(C)(C)c1cc(Nc2cccc(C(N)=O)c2)cc(C(C)(C)C)c1O [Compound 89] |  |  | 31 | 
CC(C)(C)c1cc(Nc2ccc(F)cc2)cc(C(C)(C)C)c1O [Compound 1, 2,6-di-tert-butyl-4-(4-fluorophenylamino)phenol] | 24 | 36 | 57 | 
CC(C)(C)c1cc(Nc2ccccc2Cl)cc(C(C)(C)C)c1O [Compound 2] |  |  | 12 | 
COc1ccc2c(c1)c(CC(=O)O)c(C)n2C(=O)c1ccc(Cl)cc1 [indomethacin, reference compound] |  |  |  | 62
CCCCCC(=O)/C=C/c1cccc(Nc2cc(C(C)(C)C)c(O)c(C(C)(C)C)c2)c1 [Compound 51] |  |  | 10 | 
CC(C)(C)c1cc(Nc2ccccc2/C=C/C(=O)O)cc(C(C)(C)C)c1O [Compound 48, 2-(3,5-di-tert-butyl-4-hydroxyphenylamino)cinnamic acid] |  |  | 62 | 
CCCCCCNC(=O)/C=C/c1cccc(Nc2cc(C(C)(C)C)c(O)c(C(C)(C)C)c2)c1 [Compound 66] |  |  | 15 | 
CC(C)(C)c1cc(Nc2ccc(S(C)(=O)=O)cc2)cc(C(C)(C)C)c1O [Compound 92] |  |  | 35 | 
CC(C)(C)c1cc(Nc2ccc(CC(=O)NN)cc2)cc(C(C)(C)C)c1O [Compound 76, 2,6-di-tert-butyl-4-(4-hydrazinocarbonylmethylphenylamino)phenol] |  |  | 47 | 

Continued, in another order:

inhibition at 1 µM [1] [%] | inhibition at 10 µM [1] [%] | SMILES | inhibition in vivo at 100 mg/kg [2] [%] | inhibition in vivo at 5 mg/kg ([2]; Rattus norvegicus, 3 h) [%]
19 | 50 | CN(C)c1ccc(Nc2cc(C(C)(C)C)c(O)c(C(C)(C)C)c2)cc1 [Compound 42, 4-(4-dimethylaminophenylamino)-2,6-di-tert-butylphenol dihydrochloride] |  | 
37 | 58 | CC(C)(C)c1cc(Nc2cc(Cl)ccc2O)cc(C(C)(C)C)c1O [Compound 19] |  | 
34 | 63 | CC(C)(C)c1cc(Nc2ccccc2CO)cc(C(C)(C)C)c1O [Compound 32, 2,6-di-tert-butyl-4-(2-hydroxymethylphenylamino)phenol] | 74 | 
15 | 57 | CC(C)(C)c1cc(Nc2ccc(N)cc2)cc(C(C)(C)C)c1O [Compound 14] | 42 | 
91 | 95 | Cc1ccc(Nc2cc(C)c(O)c(C)c2C)cc1 [Compound 81, 2,3,6-trimethyl-4-(4-methylphenylamino)phenol] |  | 
78 | 94 | Cc1cc(Nc2ccccc2)c2c(c1O)CCCC2 [Compound 80, 2-methyl-4-phenylamino-5,6,7,8-tetrahydronaphthol] |  | 
21 | 46 | CC(C)(C)c1cc(Nc2ccc(CC(=O)O)cc2)cc(C(C)(C)C)c1O [Compound 5] |  | 
16 | 51 | Cc1ccc(Nc2cc(C(C)(C)C)c(O)c(C(C)(C)C)c2)cc1 [Compound 20] |  | 
52 | 86 | CC(C)(C)c1cc(Nc2ccc(CCO)cc2)cc(C(C)(C)C)c1O [Compound 33] |  | 
28 | 67 | CC(C)(C)c1cc(Nc2ccc(CCCC(=O)O)cc2)cc(C(C)(C)C)c1O [Compound 22] |  | 
26 | 51 | CC(C)(C)c1cc(Nc2cccc(C(=O)O)c2)cc(C(C)(C)C)c1O [Compound 24, 2,6-di-tert-butyl-4-(3-carboxyphenylamino)phenol] |  | 
95 | 95 | COc1ccc(Nc2cc(C)c(O)c(C)c2C)cc1 [Compound 91, 2,3,6-trimethyl-4-(4-methoxyphenylamino)phenol] |  | 
75 | 95 | CCOC(=O)/C=C/c1cccc(Nc2cc(C)c(O)c(C)c2C)c1 [Compound 52, ethyl 3-(4-hydroxy-2,3,5-trimethylphenylamino)cinnamate hydrochloride] |  | 
 | 49 | COc1ccc(Nc2cc(C(C)(C)C)c(O)c(C(C)(C)C)c2)cc1 [Compound 7] | 41 | 
89 | 95 | COC(=O)Cc1ccc(Nc2cc(C)c(O)c3c2CCCC3)cc1 [Compound 87, 2-methyl-4-(4-methoxycarbonylmethylphenylamino)-5,6,7,8-tetrahydronaphthol] |  | 
 | 66 | CC(C)(C)c1cc(Nc2ccccc2C(=O)O)cc(C(C)(C)C)c1O [Compound 25, 2,6-di-tert-butyl-4-(2-carboxyphenylamino)phenol] |  | 
93 | 92 | COC(=O)Cc1ccc(Nc2cc(C)c(O)c(C)c2C)cc1 [Compound 86, 4-(4-methoxycarbonylmethylphenylamino)-2,3,6-trimethylphenol] |  | 
42 | 90 | Cc1cc(Nc2ccc(C(=O)O)cc2)c(C)c(C)c1O [Compound 102] |  | 
90 | 96 | Cc1cc(Nc2ccc(Cl)cc2)c(C)c(C)c1O [Compound 94, 2,3,6-trimethyl-4-(4-chlorophenylamino)phenol] |  | 
87 | 93 | Cc1cc(Nc2ccccc2)c(C)c(C)c1O [Compound 79, 2,3,6-trimethyl-4-phenylaminophenol] | 47 | 
27 | 67 | CC(=O)c1ccc(Nc2cc(C(C)(C)C)c(O)c(C(C)(C)C)c2)cc1 [Compound 9] |  | 
45 |  | CC(Cc1ccc(O)c(O)c1)C(C)Cc1ccc(O)c(O)c1 (stereo not drawn) [NDGA, nordihydroguaiaretic acid, reference compound] |  | 
41 | 91 | Cc1cc(Nc2cccc(CC(=O)O)c2)c(C)c(C)c1O [Compound 103] |  | 
55 | 90 | Cc1cc(Nc2ccc(CC(=O)O)cc2)c2c(c1O)CCCC2 [Compound 104] |  | 
33 | 71 | CC(C)(C)c1cc(Nc2ccc(C(=O)O)cc2)cc(C(C)(C)C)c1O [Compound 26] |  | 
19 | 71 | Cc1ccc(Nc2cc(C(C)(C)C)c(O)c(C(C)(C)C)c2)c(C(=O)O)c1 [Compound 29] |  | 
